Measured values taken from patent US10111885B2, “Compositions and therapeutic methods for the treatment of complement-associated diseases” (Resverlogix Corp., priority 2015, dated 2018).

Experiments:
MBL2 mRNA = test: Complement mRNA expression in primary human hepatocytes; format: cell-based; settings: 0.3 uM, maximum at 24 h, single donor
Experimental: (§1) Huh-7 and HepG2 cells are liver-derived cell lines and are models for what can occur in the liver. Huh-7 cells (JCRB Cell Bank) were introduced to 96-well plates (^˜2.5×10^5 per well) in 100 μL DMEM containing 10% (v/v) FBS, 100 U/mL penicillin, 100 ug/mL streptomycin and 5 ug/mL plasmocin (all reagents from Gibco, except for the former, which was obtained from Invivogen). After 24 h, Huh-7 cells were treated with compounds in the same media formulation used for plating, and supplemented with 0.1% DMSO for the amount of time indicated in tables 2, 3, and 4. For select experiments, 24 h post-plating, cells were treated with cytokines and the compound of interest simultaneously, for a total treatment time of 48 h. Alternatively, 24 h after plating, cells were pre-treated with cytokines for 24 h before adding the compound of interest for 48 h. HepG2 cells (ATCC) were cultured in 96-well plates (^˜2.5×10^5 per well) in MEM containing 10% FBS, 1× non-essential amino acids, 1 mM sodium pyruvate, 2 mM L-glutamine, 100 U/mL penicillin, 100 ug/mL streptomycin and 5 ug/mL plasmocin. Serum amount was reduced to 0.5% for treatments with compound or cytokines. Timing of treatment of HepG2 cells with compounds and cytokines was as described for Huh-7 cells. Primary human hepatocytes (CellzDirect/Life Technologies) were plated in collagen coated 96-well plates at 70 000 cells/well, then overlaid with Matrigel™ as recommended by the supplier. Cells were treated with compounds of interest and/or cytokines for the indicated time points in the recommended media supplemented with 0.1% DMSO and 10% FBS (v/v). Cells were harvested by mRNA Catcher PLUS Kit (Life Technologies) followed by real-time PCR using the RNA UltraSense One-Step qRT-PCR System. The level of the mRNA of interest was measured by TaqMan real-time PCR relative to the endogenous control cyclophilin A in the same sample.

complement C1S mRNA = test: as above; format: cell-based; settings: 0.3 uM, maximum at 72 h, single donor
Experimental: as §1

complement C2 mRNA = test: as above; format: cell-based; settings: 0.3 uM, maximum at 72 h, single donor
Experimental: as §1

complement C3 mRNA = test: as above; format: cell-based; settings: 0.3 uM, maximum at 24 h, single donor
Experimental: as §1

complement C4 mRNA = test: as above; format: cell-based; settings: 0.3 uM, maximum at 24 h, single donor
Experimental: as §1

complement C5 mRNA = test: as above; format: cell-based; settings: 0.3 uM, maximum at 24 h, single donor
Experimental: as §1

complement C9 mRNA = test: as above; format: cell-based; settings: 0.3 uM, maximum at 48 h, single donor
Experimental: as §1

Complement C3 (C3) = test: Multi-analyte profiling of plasma, ASSURE trial; format: in vivo, human; settings: week 26 vs. baseline, N 20
Experimental: (§2) In this example, plasma samples from human subjects treated with placebo or RVX000222 was analyzed by Multi-Analyte Profiling (MAP) technology. The method can be used to determine the effect of compounds, including those in the present invention, on the levels of various analytes in plasma (Table 8).

[1] = system: Complement Factor H (CFH); test: Multi-analyte profiling of plasma, ASSURE trial; format: in vivo, human; settings: week 26 vs. baseline, N 20
Experimental: as §2

[2] = system: Complement Factor H - Related Protein 1 (CFHR1); test: Multi-analyte profiling of plasma, ASSURE trial; format: in vivo, human; settings: week 26 vs. baseline, N 17
Experimental: as §2

[3] = system: classical complement system hemolytic activity (sensitized sheep erythrocytes); test: Total hemolytic complement (CH50) assay on clinical serum samples; format: in vivo, human; settings: ASSURE trial, 26 weeks vs baseline
Experimental: The method can be used to determine the effect of compounds, including those in the present invention, on the activity of the classical and alternative complement system in clinical samples. […] Using the CH50 screening assay to detect the hemolysis of sheep erythrocytes sensitized by specific antibodies, the hemolytic activity of the complement system in serum samples from treated and untreated subjects was measured. Likewise, using specific conditions to activate only the alternative pathway (AH50), activity of the complement response was measured. The degree of complement activation was measured at baseline and terminally to determine if there were any changes in the function of the complement system following drug treatment (FIG. 7). Reduced function of the complement system constitutes a positive result.

C5a anaphylatoxin = test: SOMAscan protein quantitation in clinical samples, ASSURE trial; format: in vivo, human; settings: 200 mg/day, week 26 vs. baseline
Experimental: (§3) In this example, plasma samples from human subjects treated with placebo or RVX000222 are analyzed by the SOMAscan™ assay (SomaLogic). The method can be used to determine the effect of compounds, including those in the present invention, on the abundance of proteins, including complement components, in clinical samples. […] Using the SOMAscan™ technology, each sample is analyzed for the relative presence and amount of 1,310 different proteins. The changes in values for each protein analyte are calculated versus the baseline measure, and statistically significant (p<0.05) values are reported (Table 10). Downregulation of expression of components of the complement cascade will result in reduced activity of the pathway and thus will constitute a positive result.

[4] = system: Complement C1s subcomponent; test: as above; format: in vivo, human; settings: 200 mg/day, week 26 vs. baseline
Experimental: as §3

Complement C2 = test: as above; format: in vivo, human; settings: 200 mg/day, week 26 vs. baseline
Experimental: as §3

Complement C3b = test: as above; format: in vivo, human; settings: 200 mg/day, week 26 vs. baseline
Experimental: as §3

[5] = system: Complement C5b-C6 complex; test: as above; format: in vivo, human; settings: 200 mg/day, week 26 vs. baseline
Experimental: as §3

Complement C5 = test: as above; format: in vivo, human; settings: 200 mg/day, week 26 vs. baseline
Experimental: as §3

Complement component C6 = test: as above; format: in vivo, human; settings: 200 mg/day, week 26 vs. baseline
Experimental: as §3

Complement component C8 = test: as above; format: in vivo, human; settings: 200 mg/day, week 26 vs. baseline
Experimental: as §3

Complement component C9 = test: as above; format: in vivo, human; settings: 200 mg/day, week 26 vs. baseline
Experimental: as §3

[6] = system: Complement decay-accelerating factor; test: as above; format: in vivo, human; settings: 200 mg/day, week 26 vs. baseline
Experimental: as §3

Complement factor H = test: as above; format: in vivo, human; settings: 200 mg/day, week 26 vs. baseline
Experimental: as §3

Complement factor I = test: as above; format: in vivo, human; settings: 200 mg/day, week 26 vs. baseline
Experimental: as §3

[7] = system: Mannan-binding lectin serine protease 1; test: as above; format: in vivo, human; settings: 200 mg/day, week 26 vs. baseline
Experimental: as §3

[8] = system: Mannose-binding protein C; test: as above; format: in vivo, human; settings: 200 mg/day, week 26 vs. baseline
Experimental: as §3

Cc1sc2c(c1C)C(c1ccc(Cl)cc1)=N[C@@H](CC(=O)OC(C)(C)C)c1nnc(C)n1-2 [JQ1, (S)-tert-butyl 2-(4-(4-chlorophenyl)-2,3,9-trimethyl-6H-thieno[3,2-f][1,2,4]triazolo[4,3-a][1,4]diazepin-6-yl)acetate, reference compound]
MBL2 percent maximal reduction in gene expression (MBL2 mRNA): 93% (24 h)
C1S percent maximal reduction in gene expression (complement C1S mRNA): 22% (72 h)
C2 percent maximal reduction in gene expression (complement C2 mRNA): 29% (72 h)
C3 percent maximal reduction in gene expression (complement C3 mRNA): 54% (24 h)
C4 percent maximal reduction in gene expression (complement C4 mRNA): 31% (24 h)
C5 percent maximal reduction in gene expression (complement C5 mRNA): 67% (24 h)
C9 percent maximal reduction in gene expression (complement C9 mRNA): 72% (48 h)

COc1cc(OC)c2c(=O)[nH]c(-c3cc(C)c(OCCO)c(C)c3)nc2c1 [RVX000222, 2-(4-(2-hydroxyethoxy)-3,5-dimethylphenyl)-5,7-dimethoxyquinazolin-4(3H)-one]
Complement C3 (C3) Change from baseline (Complement C3 (C3)): -0.1 mg/mL
Complement C3 (C3) Percent Change from baseline (Complement C3 (C3)): −9.28%
Complement Factor H (CFH) Change from baseline [1]: -75.35 µg/mL
Complement Factor H (CFH) Percent Change from baseline [1]: −11.45%
Complement Factor H - Related Protein 1 (CFHR1) Change from baseline [2]: -291.76 µg/mL
Complement Factor H - Related Protein 1 (CFHR1) Percent Change from baseline [2]: −10.75%
complement activity in clinical samples, CHSO assay (FIG. 7B) [3]: reduces complement activity
C5a anaphylatoxin (C5) % change vs. baseline (C5a anaphylatoxin): −28.7%
Complement C1s subcomponent (C1S) % change vs. baseline [4]: −6.1%
Complement C2 (C2) % change vs. baseline (Complement C2): −6.7%
Complement C3b (C3) % change vs. baseline (Complement C3b): −52.7%
Complement C5b-C6 complex (C5 C6) % change vs. baseline [5]: −12.0%
Complement C5 (C5) % change vs. baseline (Complement C5): −11.7%
Complement component C6 (C6) % change vs. baseline (Complement component C6): −14.3%
Complement component C8 (C8) % change vs. baseline (Complement component C8): −10.1%
Complement component C9 (C9) % change vs. baseline (Complement component C9): −18.3%
Complement decay-accelerating factor (CD55) % change vs. baseline [6]: −4.0%
Complement factor H (CFH) % change vs. baseline (Complement factor H): −5.6%
Complement factor I (CFI) % change vs. baseline (Complement factor I): −6.4%
Mannan-binding lectin serine protease 1 (MASP1) % change vs. baseline [7]: 4.8%
Mannose-binding protein C (MBL2) % change vs. baseline [8]: −14.6%
